Source: patent US20120058133A1, “INHIBITION OF TRNA SYNTHETASES AND THERAPEUTIC APPLICATIONS THEREOF” (President and Fellows of Harvard College, priority 2009, published 2012)
“Also recorded” adds a separate entry of the source.

Experiments:
[1] = tested on: passive EAE in RAG2-deficient mice; test: Passive EAE (transfer of PLP-reactive T cells); type: in vivo, mouse; conditions: 2 μg HF daily i.p.
Source text: The ability of systemic HF treatment to block IL-17 expression and associated autoimmune inflammation in vivo was examined using two distinct models of experimental autoimmune encephalomyelitis (EAE). […] The second model, a passive model of EAE induction, is initiated by the transfer of myelin proteolipid protein (PLP)-reactive T cells into lymphopenic hosts.
Passive EAE was induced by intravenous transfer of purified CD3^+ splenic T cells isolated from PLP TCR transgenic B10.S mice into syngeneic RAG2-deficient mice (3×10^6 cells/mouse) (Waldner et al., J. Clin. Invest. 113(7):990-997, 2004).
Mice were injected daily with HF (2 μg/mouse) or vehicle control (DMSO) i.p. Clinical signs of EAE were assessed according to the following score: 0, no signs of disease; 1, flaccid tail; 2, weak gait/hind limb paresis; 3, hind limb paralysis; 4, tetraplegia; 5, moribund. Cytokine production during EAE was determined either in peripheral T cells isolated from spleen or lymph nodes of mice prior to disease onset (day 6-10) or in mononuclear cells isolated from the brain and spinal cords of mice with severe disease (clinical score ≧2) between days 15-20. Briefly, splenocytes were stained for intracellular cytokines following erythrocyte lysis with ammonium chloride buffer. T cells were isolated from brain and spinal cords of mice with active EAE following perfusion with cold PBS. […]

[2] = tested on: primary human memory T cells (CD4+ CD45RO+); test: IL-17 and IFNγ expression by human memory T cells co-cultured with CD14+ monocytes; type: cell-based; conditions: 100 nM HF, 6 days
Protocol: FIG. 2F is a set of FACS analyses of purified primary human memory T cells (CD4^+ CD45RO^+) activated in co-culture with CD14^+ monocytes and treated with DMSO, 100 nM HF or 100 nM MAZ1310. T cells were expanded for 6 days and intracellular cytokine expression was determined following restimulation with PMA plus ionomycin.
Primary murine T and B cells were purified by cell sorting. CD4^+ CD25^− T cells were positively selected using CD4 dynabeads and detachabeads (Dynal—Oslo, Norway) per manufacturers instructions followed by nTreg depletion using a CD25 microbead kit (Miltenyi biotech—Auburn, Calif.). Naïve (CD4^+ CD62Lhi CD44lo Foxp3gfp- or CD4^+ CD62Lhi CD44lo CD25^−) T cells were purified from Foxp3gfp or Foxp3ko mice, respectively, by FACS sorting. CD8^+ T cells or B cells were isolated from CD4^− fractions using CD8 negative isolation kit (Dynal) or CD43 negative isolation kit (Miltenyi biotech), respectively. Resting human CD4^+ T cells were isolated from PBMC of healthy human donors using Dynal CD4 Positive Isolation Kit (Invitrogen—Carlsbad, Calif.) as previously described (Sundrud et al., Blood 106:3440, 2005). CD4^+ cells were further purified to obtain memory T cells by staining with PE-conjugated anti-human CD45RO-PE antibodies (BD Biosciences), and sorting on a FACSAria cytometer (BD Biosciences). Following purification, cells were greater than 99% CD4^+ CD45RO^+. […]

## O=C(CC1NCCCC1O)Cn1cnc2cc(Br)c(Cl)cc2c1=O (racemic) [HF, halofuginone]
[1]
  disease in passive EAE model: kinetics and severity similar to control treated animals; also recorded: had no effect on an independent, passive model of EAE
[2]
  IFNγ expression in human T cells: essentially unaffected
  percentage of human T cells expressing IL-17 and amount of IL-17 produced: greatly reduced
